Test results from patent publication US7507739B2, “6-[(substituted)phenyl]triazolopyrimidines as anticancer agents” (Wyeth, priority 2003, dated 2009).
Marks after values point to notes of the source that are not given here.

Columns and labels:
[1] = Water uptake and hydrate stability at relative humidity; format: physicochemical; conditions: room temperature; for water absorbed: 80-100% relative humidity, about 24 h, forms dihydrate; for stability of dihydrate: 5-100% relative humidity
Procedure: To a slurry of 5-chloro-6-{2,6-difluoro-4-[3-(methylamino)propoxy]phenyl}-N-[(1S)-2,2,2-trifluoro-1-methylethyl][1,2,4]triazolo[1,5-a]pyrimidin-7-amine hydrochloride (7.50 g, 15.0 mmol) and water (100 mL) is added sodium hydroxide solution (10 N, 2.0 mL, 20 mmol) dropwise. Then, fumaric acid (3.48 g, 30 mmol) is added. The mixture is stirred for about 15-20 min and then heated to about 65-75° C. and stirred until all of the solid dissolves. The solution is filtered and the filtrate is cooled to about 0-5° C. over about 1 h. The mixture is stirred for 1 h and then filtered and the collected solid washed with cold water and isopropanol. The solid is dried under vacuum at about 60° C./10 mmHg for about 20 h to give a white solid (6.54 g, 75%) in anhydrous form. A portion of the compound is placed in a drying dish at 80-100% relative humidity (RH) and room temperature for about 24 h.
A mixture of 5-chloro-6-{2,6-difluoro-4-[3-(methylamino)propoxy]phenyl}-N-[(1S)-2,2,2-trifluoro-1-methylethyl][1,2,4]triazolo[1,5-a]pyrimidin-7-amine (9.00 g, 19.4 mmol) and succinic acid (2.75 g, 23.3 mmol) in water (90 mL) is stirred for about 15-20 min and then heated to about 65-75° C. The solution is filtered and the filtrate is cooled to about 0-5° C. over about 1 h. The mixture is stirred for about 1 h and then filtered and the collected solid washed with cold water (2×9 mL) and cold isopropanol (9 mL). The solid is dried under vacuum at about 40° C./10 mmHg for about 20 h to give a white solid in anhydrous form (6.6 g, 73%). A portion of the compound is placed in a drying dish at 80-100% relative humidity (RH) and room temperature for about 24 h.

[2] = tested on: COLO 205 cells; test: MTS cytotoxicity test with COLO 205 cells; format: cell-based, human; conditions: 3 days, Succinate Salt
Method in brief: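 COLO 205 human colon carcinoma cells, 1000 per well, exposed 3 days at 37° C to nine 2-fold dilutions, typical final top concentration 5 μM. MTS absorbance normalized to time-0 plate; IC50 is concentration giving colour yield midway between untreated and fully killed controls.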

[3] = tested on: H157 Human Non-Small Cell Lung Carcinoma; test: Human tumor xenograft test, H157; format: in vivo, athymic mice; conditions: for T/C on day 0 / T/C on day 2 / T/C on day 5 / T/C on day 8 / T/C on day 12 / T/C on day 15: days 0, 7
Procedure: The ability of compounds of this invention to inhibit tumor growth in animals is studied in the athymic mouse xenograft standard pharmacological test. Female nu/nu mice in an outbred albino background are obtained from Charles River Laboratories (Wilmington, Mass.). Animals are injected subcutaneously on the flank with the desired tumor cell suspension. Several days later, mice with tumors of approximately 150 mm^3 are selected from those injected (staged) and randomly distributed into groups of 5-10. The day of staging is called day 0. Compounds of the invention, usually formulated in saline (exceptions are noted in tables), are administered to animals by intravenous injection or oral gavage on various schedules starting on day 0 or 1, as noted in the tables. The control group in each experiment is dosed with vehicle on the same schedule. Tumor size is measured every 3-7 days with calipers in two orthogonal dimensions, and tumor volume is calculated from the formula volume=[(length×width^2)/2].
Tumor/Control (T/C) is obtained by dividing the mean tumor volume of the treated group by the mean tumor volume of the control group on each measurement day. A treatment dose is defined as active if it produced a statistically significant T/C of 0.50 or less. A p value≦0.05, determined by one-side Student's t-test, is required for statistical significance. A treatment dose is defined as toxic if more than 10% of the animals died from a compound-related toxicity.

What does the source list for `CNCCCOc1cc(F)c(-c2c(Cl)nc3ncnn3c2N[C@@H](C)C(F)(F)F)c(F)c1.O=C(O)/C=C/C(=O)O` [Example 2b, 5-Chloro-6-{2,6-difluoro-4-[3-(methylamino)propoxy]phenyl}-N-[(1S)-2,2,2-trifluoro-1-methylethyl][1,2,4]triazolo[1,5-a]pyrimidin-7-amine Fumarate Salt]?
water absorbed [1]: 5.8%; stability of dihydrate [1]: stable at room temperature and at 5-100% relative humidity

What does the source list for `CNCCCOc1cc(F)c(-c2c(Cl)nc3ncnn3c2N[C@@H](C)C(F)(F)F)c(F)c1.O=C(O)CCC(=O)O` [Example 2c, 5-Chloro-6-{2,6-difluoro-4-[3-(methylamino)propoxy]phenyl}-N-[(1S)-2,2,2-trifluoro-1-methylethyl][1,2,4]triazolo[1,5-a]pyrimidin-7-amine Succinate Salt]?
IC50 [2]: 38 nM; T/C on day 0 ([3]; H157, 10 mg/kg IV): 1.07; T/C on day 2 ([3]; H157, 10 mg/kg IV): 1.09; T/C on day 5 ([3]; H157, 10 mg/kg IV): 1.00; T/C on day 8 ([3]; H157, 10 mg/kg IV): 0.96; T/C on day 12 ([3]; H157, 10 mg/kg IV): 0.49*; T/C on day 15 ([3]; H157, 10 mg/kg IV): 0.38*; T/C on day 0 ([3]; H157, 20 mg/kg IV): 0.98; T/C on day 2 ([3]; H157, 20 mg/kg IV): 0.96; T/C on day 5 ([3]; H157, 20 mg/kg IV): 0.50**; T/C on day 8 ([3]; H157, 20 mg/kg IV): 0.51*; T/C on day 12 ([3]; H157, 20 mg/kg IV): 0.44*; T/C on day 15 ([3]; H157, 20 mg/kg IV): 0.24**; tumor growth inhibition (activity call) ([3]; H157 NSCLC, 20 and 10 mg/kg intravenously on days 0 and 7): active; water absorbed [1]: 5.8%; stability of dihydrate [1]: stable at room temperature and at 5-100% relative humidity
